Peptide text beside a SMILES is read from it. * marks the point of attachment. Cbz = O=C(OCc1ccccc1)*

Experiment [1] relates to PREP-catalyzed α-synuclein dimerization in N2A cells. Kind of experiment: αSyn dimerization, protein fragment complementation assay (PCA) in N2A cells. It is filed as cell-based. The settings on record: for activity at 10 µM: Mus musculus, luminescence signal percentage of DMSO control with SEM, N2A cells; for increase of aSyn dimerization compared to DMSO control: 10 µM proteasome inhibitor, positive control, % increase. The procedure: The effect of the compounds on autophagy was determined by using GFP-LC3B-RFP expressing HEK-293 cells.[15],[34] The effect on αSyn dimerization was evaluated with a protein fragment complementation assay (PCA) by using N2A cells.[10],[15],[16] The increase in autophagic flux was measured as a decrease in GFP signal due to increased degradation of GFP-LC3B, and the decrease in αSyn dimerization was measured as a decrease in luminescence, both compared with DMSO (Table 1). […] Rapamycin and starvation are known to induce autophagy, lowering the fluorescence to 65–70% in our assays, and were therefore used as reference compounds for this. Test compounds were assayed at 10 μM concentration with 0.1% DMSO. A graphical representation of the mean values (± SEM) can be seen in the Supporting Information (Figure S1).
Measuring biological activity […]
α-Synuclein Dimerization. αSyn dimerization was assessed by using PCA, which was carried out as described previously in Kilpeläinen et al.1 In short, N2A cells were seeded on poly-L-lysine-coated 96-well plates (Isoplate™ white wall, PerkinElmer Life Sciences) at the density of 13 000 cells/well. 24 h post-plating, reporter plasmids were transfected with 100 ng of total plasmid DNA per well. N2A cells were transfected with 25 ng of both αSyn-Gluc1 and αSyn-Gluc2 and 50 ng mock-plasmid or non-tagged human PREP expression plasmid 50 ng/well. Lipofectamine 3000 (Thermo Fischer Scientific) was used as the transfection reagent. 100 µL normal growth medium was added to all wells at 24 h post-transfection. 48 hours post-transfection medium was changed to phenol red free DMEM without serum containing the tested compounds at 10 µM concentration, with 0,1% DMSO as vehicle control. Proteasome inhibitors lactacystin (AG Scientific) at 10 µM and MG-132 (Enzo Life Sciences) at 10 µM served as a positive control. The PCA signal was assessed by injecting 25 µL of native coelenterazine (Nanolight Technology) in phenol red free DMEM per well (final concentration 6 µM). The emitted luminescence was read using Varioskan LUX multimode microplate reader (Thermo Scientific). For each experimental condition, 4 replicate wells were used in each experiment, and at least 3 separate experiments for each treatment except for 15c which had 2 separate experiments. […]

For experiment [2], the system named is GFP-LC3B-RFP expressing HEK-293 cells. Kind of experiment: Autophagic flux, GFP signal in GFP-LC3B-RFP expressing HEK-293 cells. Type of experiment: cell-based. Conditions: for activity at 10 µM: Homo sapiens, HEK293, 24 h, GFP signal percentage of DMSO control with SEM, HEK-293 cells, read-out: autophagy at 10 μM (%); for activity at 10 µM / effect on autophagy (in words): 10 μM.

The target in experiment [3] is T1, purified recombinant porcine PREP (Sus scrofa, UniProt P23687).
T1 construct: made in house; host or cells: E. coli
T1 sequence (P23687 whole entry): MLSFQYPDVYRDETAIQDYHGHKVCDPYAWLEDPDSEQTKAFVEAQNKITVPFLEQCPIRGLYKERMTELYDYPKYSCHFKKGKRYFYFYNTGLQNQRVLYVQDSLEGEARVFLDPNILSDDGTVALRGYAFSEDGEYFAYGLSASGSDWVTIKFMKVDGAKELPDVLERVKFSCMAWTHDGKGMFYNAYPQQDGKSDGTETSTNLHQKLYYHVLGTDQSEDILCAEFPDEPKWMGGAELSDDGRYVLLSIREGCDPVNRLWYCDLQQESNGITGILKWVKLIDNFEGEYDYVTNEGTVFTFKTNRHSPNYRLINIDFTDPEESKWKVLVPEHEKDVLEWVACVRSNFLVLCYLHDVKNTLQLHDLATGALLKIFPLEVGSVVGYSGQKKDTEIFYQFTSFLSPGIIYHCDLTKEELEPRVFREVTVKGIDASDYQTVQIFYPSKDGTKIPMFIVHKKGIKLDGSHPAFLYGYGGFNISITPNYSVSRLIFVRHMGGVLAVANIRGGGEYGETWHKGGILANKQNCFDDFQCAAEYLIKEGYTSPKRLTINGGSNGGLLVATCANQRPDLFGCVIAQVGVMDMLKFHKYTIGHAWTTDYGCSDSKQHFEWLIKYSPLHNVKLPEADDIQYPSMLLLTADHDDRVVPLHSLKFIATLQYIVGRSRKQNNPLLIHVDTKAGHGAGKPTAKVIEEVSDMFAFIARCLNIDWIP
Nature of the experiment: Inhibition of the proteolytic activity of PREP, microplate assay with Suc-Gly-Pro-AMC substrate. Type of experiment: biochemical. Conditions: for PREP activity at 1 nM inhibitor concentration compared to control: remaining activity; for IC50: Suc-Gly-Pro-AMC, 30 °C, pH 7.0, 95% CI in brackets. The procedure:
Inhibition of the proteolytic activity (IC50) of PREP was determined using purified recombinant porcine PREP[25] as previously described.[16]
Measuring biological activity
Inhibitory Activity. The IC 50 values for compounds were determined in the microplate assay procedure described in Kilpeläinen et al.1 Porcine PREP cDNA was expressed in E.coli cells and purified as described in Venäläinen et al.3 The enzyme dilution was preincubated with 0.1 M sodium–potassium phosphate buffer (75 µL, pH 7.0) containing the compounds at desired concentrations in 30 °C for 30 min. The final concentration of the compounds in the assay mixture varied from 1 mM-1 nM and the final concentration of the enzyme was approximately 0.1 nM as measured by Bradford´s method. The enzyme reaction was carried out by adding 25 µL of 4 mM Suc-Gly-Pro-AMC substrate dissolved in 0.1 M sodium–potassium phosphate buffer (pH 7.0) into the assay mixture and incubating at 30° C for 60 min. The reaction was terminated by adding […] of 1 M sodium acetate buffer (pH 4.2). Formation of AMC was measured with Victor2 multilabel counter (PerkinElmer; excitation/emission 360 nm/ 460 nm), with a standard curve of 0.1-5 nM AMC in 0.1 M sodium–potassium phosphate buffer present. All activity measurements were made at least in triplicate. The inhibitory activities (percent of control) were plotted against the log concentration of the compound, and the IC50-value was determined by non-linear regression utilizing GraphPad Prism 7.0 software. […]

As to `CN(CC(=O)N1CCC[C@H]1c1nnn[nH]1)C(=O)CCc1ccccc1` [Compound 15c], the activity at 10 µM in experiment [1] (10 μM) and in experiment [2] was 95% in each case.
Consider `O=C(CCCCc1ccccc1)N1CCC[C@H]1C(=O)N1CCC[C@H]1c1ncc[nH]1` [Compound 28a], for which the “PREP activity at 1 nM inhibitor concentration compared to control” value in experiment [3] amounted to 20%. The IC50 (commonly the concentration needed to halve the response being measured) in experiment [3] (recombinant porcine PREP) was below 1 nM. Besides, the activity at 10 µM in experiment [1] (10 μM) is 110%; in experiment [2] it was 102%.
On to `O=C(CCc1ccccc1)N1CCC[C@H]1C(=O)N1CCC[C@H]1c1nnn[nH]1` [Compound 15a], for which, in experiment [3] (recombinant porcine PREP), the IC50 was found to be 1000 nM. For the same compound, the activity at 10 µM came out at 116% in experiment [1] (10 μM) and 96% in experiment [2].
As for `O=C(CCCc1ccccc1)N1CCC[C@H]1C(=O)N1CCC[C@H]1c1cnc[nH]1` [Compound 29a], in experiment [3] (recombinant porcine PREP), the 50% inhibitory concentration (IC50) came out at 44 nM. Also, in experiment [1] (10 μM), the “effect on αSyn dimerization (in words)” value was “no activity on αSyn dimerization” and the activity at 10 µM was 98%. For the same compound, in experiment [2], the “effect on autophagy (in words)” value is on record as “some minor activity in modulating autophagy” and the activity at 10 µM came out at 92%.
On to `O=C(CCCCc1ccccc1)N1CCC[C@H]1C(=O)N1CCC[C@H]1c1nnn[nH]1` [Compound 16a], for which the IC50 in experiment [3] (recombinant porcine PREP) is 770 nM. Further, the activity at 10 µM in experiment [1] (10 μM) turned out to be 102%; in experiment [2], 98%.
For `C[C@H](NC(=O)CCCc1ccccc1)C(=O)N1CCC[C@H]1c1ncc[nH]1` [Compound 27b], in experiment [3] (recombinant porcine PREP), the IC50 is 2100 nM. Moreover, in experiment [1] (10 μM), the “effect on αSyn dimerization (in words)” value is “did not retain either of the activities” and the activity at 10 µM stood at 110%. In experiment [2], the “effect on autophagy (in words)” value is listed as “did not retain either of the activities” and the activity at 10 µM came to 106%.
For the compound `C[C@H](NC(=O)CCCc1ccccc1)C(=O)N1CCC[C@H]1c1nnc[nH]1` [Compound 20b], the activity at 10 µM came to 110% in experiment [1] (10 μM) and 91% in experiment [2].
On to `C[C@H](NC(=O)CCCc1cccs1)C(=O)N1CCC[C@H]1c1nnn[nH]1` [Compound 17b], for which the IC50 in experiment [3] (recombinant porcine PREP) amounted to 1100 nM. Moreover, in experiment [1] (10 μM), the “effect on αSyn dimerization (in words)” value is “inactive for both functions” and the activity at 10 µM was 93%. In experiment [2], the “effect on autophagy (in words)” value is “inactive for both functions” and the activity at 10 µM was 92%.
As for `O=C(CCCc1ccccc1)N1CCC[C@H]1C(=O)N1CCC[C@H]1c1ccn[nH]1` [Compound 30a], the “IC50 value (in words)” value in experiment [3] (recombinant porcine PREP) was “micromolar range”. In addition, in experiment [1] (10 μM), the “effect on αSyn dimerization (in words)” value is “no activity on αSyn dimerization” and the activity at 10 µM worked out at 99%. For the same compound, in experiment [2], the “effect on autophagy (in words)” value is given as “some minor activity in modulating autophagy” and the activity at 10 µM turned out to be 89%.
As for `CO/C1=C\C(C)=C\[C@@H](C)[C@@H](O)[C@@H](C)C/C(C)=C/C=C/[C@H](OC)[C@@H]([C@@H](C)[C@@H](O)[C@H](C)[C@@]2(O)C[C@@H](O)[C@H](C)[C@@H](C(C)C)O2)OC1=O` [bafilomycin A1, reference compound], the “increase in autophagic flux assay GFP signal compared to DMSO control” value in experiment [2] (20 nM, autophagy inhibitor control, % increase) came out at 40%.
In the case of `Cn1nnnc1[C@@H]1CCCN1C(=O)[C@@H]1CCCN1C(=O)CCCc1ccccc1` [Compound 18a], in experiment [3] (recombinant porcine PREP), the IC50 is 520000 nM. In addition, in experiment [1] (10 μM), the “effect on αSyn dimerization (in words)” value was “lost the activity on αSyn dimerization” and the activity at 10 µM was 105%. In experiment [2], the “effect on autophagy (in words)” value is “capable of inducing autophagy” and the activity at 10 µM was found to be 88%.
For `C[C@H](NC(=O)CCCCc1ccccc1)C(=O)N1CCC[C@H]1c1nnn[nH]1` [Compound 16b], in experiment [3] (recombinant porcine PREP), the IC50 was 5000 nM. For the same compound, the activity at 10 µM amounted to 92% in experiment [1] (10 μM) and 94% in experiment [2].
Regarding `O=C(CCCc1ccccc1)N1CCC[C@H]1C(=O)N1CCC[C@H]1c1ncc[nH]1` [Compound 27a], in experiment [3], the “PREP activity at 1 nM inhibitor concentration compared to control” value amounted to 25%. Besides, the IC50 in experiment [3] (recombinant porcine PREP) is below 1 nM. Moreover, the “decrease of aSyn dimerization compared to DMSO control” value in experiment [1] (10 μM, PCA, Figure S1A, % decrease) stood at 28%. For the same compound, the activity at 10 µM in experiment [1] (10 μM) was found to be 72%. In experiment [2], the “effect on autophagy (in words)” value is on record as “no effect on autophagy” and the activity at 10 µM was 96%.
Regarding `CO[C@H]1C[C@@H]2CC[C@@H](C)[C@@](O)(O2)C(=O)C(=O)N2CCCC[C@H]2C(=O)O[C@H]([C@H](C)C[C@@H]2CC[C@@H](O)[C@H](OC)C2)CC(=O)[C@H](C)/C=C(\C)[C@@H](O)[C@@H](OC)C(=O)[C@H](C)C[C@H](C)/C=C/C=C/C=C/1C` [rapamycin, reference compound], the “decrease in autophagic flux assay GFP signal compared to DMSO control” value in experiment [2] (0.5 µM, positive control, % decrease) is reported as 34%. Besides, the “fluorescence (GFP signal) relative to DMSO control” value in experiment [2] (reference for autophagy induction, in our assays) is 65–70%.
With `O=C(CCCc1ccccc1)N1CCC[C@H]1C(=O)N1CCC[C@H]1c1cnn[nH]1` [Compound 25a], the IC50 in experiment [3] (recombinant porcine PREP) was found to be 1100 nM. Also, the activity at 10 µM in experiment [1] (10 μM) turned out to be 104%; in experiment [2], 93%.
For `CC(=O)N[C@@H](CSC(=O)[C@]1([C@@H](O)C(C)C)NC(=O)[C@H](C)[C@@H]1O)C(=O)O` [lactacystin, reference compound], the “increase of aSyn dimerization compared to DMSO control” value in experiment [1] (PCA) amounted to 32%.
Regarding `O=C(CCCc1cccs1)N1CCC[C@H]1C(=O)N1CCC[C@H]1c1nnn[nH]1` [Compound 17a], the IC50 in experiment [3] (recombinant porcine PREP) was determined as 94 nM. Further, in experiment [1] (10 μM), the “effect on αSyn dimerization (in words)” value is “maintained some activity on αSyn dimerization” and the activity at 10 µM was found to be 87%. Further, in experiment [2], the “effect on autophagy (in words)” value is “slightly improved the activity in inducing autophagy” and the activity at 10 µM was found to be 87%.
As for `O=C(CCCc1ccccc1)N1CCC[C@H]1C(=O)N1CCC[C@H]1c1nnc[nH]1` [Compound 20a], in experiment [1] (10 μM), the “effect on αSyn dimerization (in words)” value was “no activity on αSyn dimerization” and the activity at 10 µM was 96%. In experiment [2], the “effect on autophagy (in words)” value is “some minor activity in modulating autophagy” and the activity at 10 µM came out at 87%.
For `Cn1nnc([C@@H]2CCCN2C(=O)[C@@H]2CCCN2C(=O)CCCc2ccccc2)n1` [Compound 19a] the same measures were “lost the activity on αSyn dimerization”, 101%, “capable of inducing autophagy” and 85%.
On to `O=C(c1ncc[nH]1)[C@@H]1CCCN1C(=O)[C@@H]1CCCN1C(=O)CCCc1ccccc1` [Compound 2a, reference compound], for which the “PREP activity at 1 nM inhibitor concentration compared to control” value in experiment [3] was 43%. For the same compound, the 50% inhibitory concentration (IC50) in experiment [3] (recombinant porcine PREP) was below 1 nM. Moreover, in experiment [1] (10 μM), the “effect on αSyn dimerization (in words)” value is “lack of activity” and the activity at 10 µM is 99%. Moreover, in experiment [2], the “effect on autophagy (in words)” value is given as “lack of activity” and the activity at 10 µM is 95%.
Turning to `CC(C)C[C@@H](C=O)NC(=O)[C@H](CC(C)C)NC(=O)[C@H](CC(C)C)NC(=O)OCc1ccccc1` [MG-132, reference compound] (Cbz-Leu-Leu-Leu-aldehyde), the “increase of aSyn dimerization compared to DMSO control” value in experiment [1] (PCA) was 29%.

The values are drawn from PMC8521653 (ACS Medicinal Chemistry Letters, 2021).
